According to patent US20240415914A1, “Water Dispersible Cannabinoid Compositions” (priority 2021, published 2024):
Where two headings read alike, the source gives them in different places.

How the values were obtained:
[1] = type: physicochemical; conditions: stored at room temperature (21-25° C.)
Method: At each time period, 0.05 g of powder was dissolved in 10 ml-15 of ethanol, diluted to fall within the analytical range, and injected into the LCMSMS for analysis.

[2] = Stability of cannabinoid and Vitamin E components of Beverage 2 (AB Red) stored at 8° C. and 21-25° C., LCMSMS over 570 days

In the case of `CCCCCc1cc2c(c(O)c1C(=O)O)[C@@H]1C=C(C)CC[C@H]1C(C)(C)O2` [D9 THCA, delta-9-tetrahydrocannabinolic acid], the “Stability in Powder Concentrate (content by LCMSMS)” value (“Stability in Powder Concentrate” for short) ([1]; day 0) is reported as 0.150 mg/g powder, the “Stability in Powder Concentrate” value ([1]; day 1) is reported as 0.150 mg/g powder and the “Stability in Powder Concentrate” value ([1]; day 2) is reported as 0.147 mg/g powder. For the same molecule, the “Stability in Powder Concentrate” value ([1]; day 3) was 0.150 mg/g powder, the “Stability in Powder Concentrate” value ([1]; day 5) was 0.146 mg/g powder and the “Stability in Powder Concentrate” value ([1]; day 8) was 0.156 mg/g powder. For the same molecule, the “Stability in Powder Concentrate” value ([1]; day 9) was 0.151 mg/g powder, the “Stability in Powder Concentrate” value ([1]; day 10) was 0.148 mg/g powder and the “Stability in Powder Concentrate” value ([1]; day 11) was 0.145 mg/g powder. For the same molecule, the “Stability in Powder Concentrate” value ([1]; day 12) was 0.152 mg/g powder, the “Stability in Powder Concentrate” value ([1]; day 15) was 0.151 mg/g powder and the “Stability in Powder Concentrate” value ([1]; day 16) was 0.157 mg/g powder. For the same molecule, the “Stability in Powder Concentrate” value ([1]; day 17) was 0.156 mg/g powder, the “Stability in Powder Concentrate” value ([1]; day 18) was 0.149 mg/g powder and the “Stability in Powder Concentrate” value ([1]; day 19) was 0.146 mg/g powder. For the same molecule, the “Stability in Powder Concentrate” value ([1]; day 22) was 0.150 mg/g powder, the “Stability in Powder Concentrate” value ([1]; day 23) was 0.147 mg/g powder and the “Stability in Powder Concentrate” value ([1]; day 24) was 0.150 mg/g powder. For the same molecule, the “Stability in Powder Concentrate” value ([1]; day 25) was 0.150 mg/g powder, the “Stability in Powder Concentrate” value ([1]; day 26) was 0.150 mg/g powder and the “Stability in Powder Concentrate” value ([1]; day 29) was 0.152 mg/g powder. For the same molecule, the “Stability in Powder Concentrate” value ([1]; day 30) was 0.151 mg/g powder, the “Stability in Powder Concentrate” value ([1]; day 60) was 0.146 mg/g powder and the “Stability in Powder Concentrate” value ([1]; day 90) was 0.147 mg/g powder. The “Stability in Powder Concentrate” value ([1]; day 120) was 0.147 mg/g powder, the “Stability in Powder Concentrate” value ([1]; day 150) was 0.153 mg/g powder and the “Stability in Powder Concentrate” value ([1]; day 180) was 0.154 mg/g powder. The “Stability in Powder Concentrate” value ([1]; day 210) was 0.151 mg/g powder, the “Stability in Powder Concentrate” value ([1]; day 240) was 0.148 mg/g powder and the “Stability in Powder Concentrate” value ([1]; day 270) was 0.148 mg/g powder. The “Stability in Powder Concentrate” value ([1]; day 300) was 0.156 mg/g powder, the “Stability in Powder Concentrate” value ([1]; day 330) was 0.156 mg/g powder and the “Stability in Powder Concentrate” value ([1]; day 360) was 0.155 mg/g powder. The “Stability in Powder Concentrate” value ([1]; day 390) was 0.153 mg/g powder, the “Stability in Powder Concentrate” value ([1]; day 420) was 0.154 mg/g powder and the “Stability in Powder Concentrate” value ([1]; day 450) was 0.155 mg/g powder. For the same molecule, the “Stability in Powder Concentrate” value ([1]; day 480) was 0.149 mg/g powder, the “Stability in Powder Concentrate” value ([1]; day 510) was 0.154 mg/g powder and the “Stability in Powder Concentrate” value ([1]; day 540) was 0.154 mg/g powder. For the same molecule, the “Stability in Powder Concentrate” value ([1]; day 570) was 0.148 mg/g powder, the “Stability of Cannabinoids in AB Red” value ([2]; 8° C., 0 days) was 1.35 µg/mL and the “Stability of Cannabinoids in AB Red” value ([2]; 8° C., 1 days) was 1.34 µg/mL. The “Stability of Cannabinoids in AB Red” value ([2]; 8° C., 2 days) was 1.34 µg/mL, the “Stability of Cannabinoids in AB Red” value ([2]; 8° C., 3 days) was 1.35 µg/mL and the “Stability of Cannabinoids in AB Red” value ([2]; 8° C., 5 days) was 1.36 µg/mL. For the same molecule, the “Stability of Cannabinoids in AB Red” value ([2]; 8° C., 8 days) was 1.35 µg/mL, the “Stability of Cannabinoids in AB Red” value ([2]; 8° C., 9 days) was 1.36 µg/mL and the “Stability of Cannabinoids in AB Red” value ([2]; 8° C., 10 days) was 1.35 µg/mL. The “Stability of Cannabinoids in AB Red” value ([2]; 8° C., 11 days) was 1.35 µg/mL, the “Stability of Cannabinoids in AB Red” value ([2]; 8° C., 12 days) was 1.32 µg/mL and the “Stability of Cannabinoids in AB Red” value ([2]; 8° C., 15 days) was 1.33 µg/mL. The “Stability of Cannabinoids in AB Red” value ([2]; 8° C., 16 days) was 1.31 µg/mL, the “Stability of Cannabinoids in AB Red” value ([2]; 8° C., 17 days) was 1.34 µg/mL and the “Stability of Cannabinoids in AB Red” value ([2]; 8° C., 18 days) was 1.35 µg/mL. For the same molecule, the “Stability of Cannabinoids in AB Red” value ([2]; 8° C., 19 days) was 1.32 µg/mL, the “Stability of Cannabinoids in AB Red” value ([2]; 8° C., 22 days) was 1.34 µg/mL and the “Stability of Cannabinoids in AB Red” value ([2]; 8° C., 23 days) was 1.33 µg/mL. For the same molecule, the “Stability of Cannabinoids in AB Red” value ([2]; 8° C., 24 days) was 1.33 µg/mL, the “Stability of Cannabinoids in AB Red” value ([2]; 8° C., 25 days) was 1.34 µg/mL and the “Stability of Cannabinoids in AB Red” value ([2]; 8° C., 26 days) was 1.33 µg/mL. The “Stability of Cannabinoids in AB Red” value ([2]; 8° C., 29 days) was 1.35 µg/mL, the “Stability of Cannabinoids in AB Red” value ([2]; 8° C., 30 days) was 1.31 µg/mL and the “Stability of Cannabinoids in AB Red” value ([2]; 8° C., 60 days) was 1.32 µg/mL. For the same molecule, the “Stability of Cannabinoids in AB Red” value ([2]; 8° C., 90 days) was 1.34 µg/mL, the “Stability of Cannabinoids in AB Red” value ([2]; 8° C., 120 days) was 1.30 µg/mL and the “Stability of Cannabinoids in AB Red” value ([2]; 8° C., 150 days) was 1.34 µg/mL. For the same molecule, the “Stability of Cannabinoids in AB Red” value ([2]; 8° C., 180 days) was 1.30 µg/mL, the “Stability of Cannabinoids in AB Red” value ([2]; 8° C., 210 days) was 1.33 µg/mL and the “Stability of Cannabinoids in AB Red” value ([2]; 8° C., 240 days) was 1.32 µg/mL. For the same molecule, the “Stability of Cannabinoids in AB Red” value ([2]; 8° C., 270 days) was 1.33 µg/mL, the “Stability of Cannabinoids in AB Red” value ([2]; 8° C., 300 days) was 1.30 µg/mL and the “Stability of Cannabinoids in AB Red” value ([2]; 8° C., 330 days) was 1.34 µg/mL. For the same molecule, the “Stability of Cannabinoids in AB Red” value ([2]; 8° C., 390 days) was 1.29 µg/mL, the “Stability of Cannabinoids in AB Red” value ([2]; 8° C., 420 days) was 1.29 µg/mL and the “Stability of Cannabinoids in AB Red” value ([2]; 8° C., 450 days) was 1.31 µg/mL. The “Stability of Cannabinoids in AB Red” value ([2]; 8° C., 480 days) was 1.28 µg/mL, the “Stability of Cannabinoids in AB Red” value ([2]; 8° C., 510 days) was 1.25 µg/mL and the “Stability of Cannabinoids in AB Red” value ([2]; 8° C., 540 days) was 1.26 µg/mL. For the same molecule, the “Stability of Cannabinoids in AB Red” value ([2]; 8° C., 570 days) was 1.24 µg/mL, the “Stability of Cannabinoids in AB Red” value ([2]; 21-25° C., 0 days) was 1.35 µg/mL and the “Stability of Cannabinoids in AB Red” value ([2]; 21-25° C., 1 days) was 1.34 µg/mL. The “Stability of Cannabinoids in AB Red” value ([2]; 21-25° C., 2 days) was 1.30 µg/mL, the “Stability of Cannabinoids in AB Red” value ([2]; 21-25° C., 3 days) was 1.32 µg/mL and the “Stability of Cannabinoids in AB Red” value ([2]; 21-25° C., 5 days) was 1.36 µg/mL. For the same molecule, the “Stability of Cannabinoids in AB Red” value ([2]; 21-25° C., 8 days) was 1.36 µg/mL, the “Stability of Cannabinoids in AB Red” value ([2]; 21-25° C., 9 days) was 1.35 µg/mL and the “Stability of Cannabinoids in AB Red” value ([2]; 21-25° C., 10 days) was 1.33 µg/mL. The “Stability of Cannabinoids in AB Red” value ([2]; 21-25° C., 11 days) was 1.33 µg/mL, the “Stability of Cannabinoids in AB Red” value ([2]; 21-25° C., 12 days) was 1.33 µg/mL and the “Stability of Cannabinoids in AB Red” value ([2]; 21-25° C., 15 days) was 1.30 µg/mL. For the same molecule, the “Stability of Cannabinoids in AB Red” value ([2]; 21-25° C., 16 days) was 1.36 µg/mL, the “Stability of Cannabinoids in AB Red” value ([2]; 21-25° C., 17 days) was 1.35 µg/mL and the “Stability of Cannabinoids in AB Red” value ([2]; 21-25° C., 18 days) was 1.36 µg/mL. For the same molecule, the “Stability of Cannabinoids in AB Red” value ([2]; 21-25° C., 19 days) was 1.31 µg/mL, the “Stability of Cannabinoids in AB Red” value ([2]; 21-25° C., 22 days) was 1.34 µg/mL and the “Stability of Cannabinoids in AB Red” value ([2]; 21-25° C., 23 days) was 1.36 µg/mL. For the same molecule, the “Stability of Cannabinoids in AB Red” value ([2]; 21-25° C., 24 days) was 1.30 µg/mL, the “Stability of Cannabinoids in AB Red” value ([2]; 21-25° C., 25 days) was 1.35 µg/mL and the “Stability of Cannabinoids in AB Red” value ([2]; 21-25° C., 26 days) was 1.32 µg/mL. For the same molecule, the “Stability of Cannabinoids in AB Red” value ([2]; 21-25° C., 29 days) was 1.33 µg/mL, the “Stability of Cannabinoids in AB Red” value ([2]; 21-25° C., 30 days) was 1.34 µg/mL and the “Stability of Cannabinoids in AB Red” value ([2]; 21-25° C., 60 days) was 1.28 µg/mL. For the same molecule, the “Stability of Cannabinoids in AB Red” value ([2]; 21-25° C., 90 days) was 1.34 µg/mL, the “Stability of Cannabinoids in AB Red” value ([2]; 21-25° C., 120 days) was 1.34 µg/mL and the “Stability of Cannabinoids in AB Red” value ([2]; 21-25° C., 150 days) was 1.28 µg/mL. For the same molecule, the “Stability of Cannabinoids in AB Red” value ([2]; 21-25° C., 180 days) was 1.30 µg/mL, the “Stability of Cannabinoids in AB Red” value ([2]; 21-25° C., 210 days) was 1.33 µg/mL and the “Stability of Cannabinoids in AB Red” value ([2]; 21-25° C., 240 days) was 1.31 µg/mL. The “Stability of Cannabinoids in AB Red” value ([2]; 21-25° C., 270 days) was 1.27 µg/mL, the “Stability of Cannabinoids in AB Red” value ([2]; 21-25° C., 300 days) was 1.27 µg/mL and the “Stability of Cannabinoids in AB Red” value ([2]; 21-25° C., 330 days) was 1.28 µg/mL. The “Stability of Cannabinoids in AB Red” value ([2]; 21-25° C., 390 days) was 1.26 µg/mL, the “Stability of Cannabinoids in AB Red” value ([2]; 21-25° C., 420 days) was 1.26 µg/mL and the “Stability of Cannabinoids in AB Red” value ([2]; 21-25° C., 450 days) was 1.31 µg/mL. For the same molecule, the “Stability of Cannabinoids in AB Red” value ([2]; 21-25° C., 480 days) was 1.29 µg/mL, the “Stability of Cannabinoids in AB Red” value ([2]; 21-25° C., 510 days) was 1.27 µg/mL and the “Stability of Cannabinoids in AB Red” value ([2]; 21-25° C., 540 days) was 1.29 µg/mL. The “Stability of Cannabinoids in AB Red” value ([2]; 21-25° C., 570 days) was 1.24 µg/mL.
